From patent US20240336574A1 (LATIGO BIOTHERAPEUTICS, INC., priority 2021, published 2024)
Read-outs that look alike come from different tables or passages of the source.

Target: T1, recombinant human NaV1.8 stably transfected HEK cells (Homo sapiens, UniProt Q9Y5Y9)
T1 construct: expressed in transfected cells; host or cells: HEK cells, stably transfected
Experiment: Compound profiling on NaV1.8, human NaV1.8 cell line, SyncroPatch384PE automated patch clamp assay (Example 115, third set of compounds, Table 27)
Type: cell-based
Details: human NaV1.8 HEK cells, Table 27 (third set of compounds)
Experimental: Compound Profiling on NaV1.8 Human NaV1.8 Cell Line SyncroPatch384PE Assay
Compounds were tested on recombinant human NaV1.8 stably transfected HEK cells using the SyncroPatch384PE system, an automated patch clamp device. Cells were cultured at 37° C./5% CO2 in DMEM medium supplemented with GlutaMAX I, NEAA 1%, FBS 10% and seeded in T175 flasks. Cells were cultured at 30° C. one day prior to recording sodium currents. On the day of the recordings, cells were detached with 0.05% Trypsin-EDTA, resuspended in serum free DMEM medium and placed into the SyncroPatch384PE 6° C. pre-cooled cell hotel and shaken at 200 rpm. Intracellular solution (IC) contained, in mM: 10, CsCl; 110, CsF; 20, EGTA; 10, HEPES. Extracellular solution (EC) contained, in mM: 140, NaCl; 4, KCl; 5, Glucose; 10, HEPES; 2, CaCl2; 1, MgCl2. Washing solution contained, in mM: 40, NMDG; 100, NaCl; 4, KCl; 10, Glucose; 10, HEPES; 5, CaCl2; 1, MgCl2.
Compounds were tested in quadruplicates in 0.1% DMSO and 0.030% Pluronic Acid. Compounds were diluted 1:3.33 in EC solution to create a 10-point concentration response curve, spanning a final concentration range from 10-0.0002 μM in the assay plate. Compounds with low nM potency were retested using a lower concentration range (1-0.00002 μM). Each plate contained tetracaine and another tool compound as positive controls. Up to 7 compounds were tested on one plate. 150 μM tetracaine and 0.1% DMSO were used as high and low controls, respectively.
Whole cell patch clamp recordings were conducted according to Nanion's standard procedure for SyncroPatch384PE®. Cells were held at a holding potential of −120 mV. A depolarization step to 10 mV for 30 ms was applied (P1 measurement), followed by a hyperpolarization step to −100 mV for 100 ms. An inactivation step at −40 mV for 10 sec was applied before stepping to −100 mV for 20 ms, followed by a step to 10 mV for 30 ms (P2 measurement) and then back to −100 mV for 30 ms. Sweep interval was 15 sec with a sampling rate of 10 kHz. Following establishment of the whole-cell configuration in EC, two washing steps with reference buffer were performed to stabilize the baseline. Compounds were then applied by the SynchroPatch into each well and the current was recorded for five minutes in EC, followed by application of tetracaine to achieve full block at the end of the experiment. The potency of the compounds was assessed on two read-outs, resting state block (P1 measurement) or inactivated state block (P2 measurement) to obtain IC50 values. Values were normalized to high (tetracaine) and low (DMSO) controls.

[1] = inactivated state block (P2 measurement), read-out: P2 IC50
[2] = resting state block (P1 measurement), read-out: P1 IC50

T1 sequence (Q9Y5Y9 whole entry): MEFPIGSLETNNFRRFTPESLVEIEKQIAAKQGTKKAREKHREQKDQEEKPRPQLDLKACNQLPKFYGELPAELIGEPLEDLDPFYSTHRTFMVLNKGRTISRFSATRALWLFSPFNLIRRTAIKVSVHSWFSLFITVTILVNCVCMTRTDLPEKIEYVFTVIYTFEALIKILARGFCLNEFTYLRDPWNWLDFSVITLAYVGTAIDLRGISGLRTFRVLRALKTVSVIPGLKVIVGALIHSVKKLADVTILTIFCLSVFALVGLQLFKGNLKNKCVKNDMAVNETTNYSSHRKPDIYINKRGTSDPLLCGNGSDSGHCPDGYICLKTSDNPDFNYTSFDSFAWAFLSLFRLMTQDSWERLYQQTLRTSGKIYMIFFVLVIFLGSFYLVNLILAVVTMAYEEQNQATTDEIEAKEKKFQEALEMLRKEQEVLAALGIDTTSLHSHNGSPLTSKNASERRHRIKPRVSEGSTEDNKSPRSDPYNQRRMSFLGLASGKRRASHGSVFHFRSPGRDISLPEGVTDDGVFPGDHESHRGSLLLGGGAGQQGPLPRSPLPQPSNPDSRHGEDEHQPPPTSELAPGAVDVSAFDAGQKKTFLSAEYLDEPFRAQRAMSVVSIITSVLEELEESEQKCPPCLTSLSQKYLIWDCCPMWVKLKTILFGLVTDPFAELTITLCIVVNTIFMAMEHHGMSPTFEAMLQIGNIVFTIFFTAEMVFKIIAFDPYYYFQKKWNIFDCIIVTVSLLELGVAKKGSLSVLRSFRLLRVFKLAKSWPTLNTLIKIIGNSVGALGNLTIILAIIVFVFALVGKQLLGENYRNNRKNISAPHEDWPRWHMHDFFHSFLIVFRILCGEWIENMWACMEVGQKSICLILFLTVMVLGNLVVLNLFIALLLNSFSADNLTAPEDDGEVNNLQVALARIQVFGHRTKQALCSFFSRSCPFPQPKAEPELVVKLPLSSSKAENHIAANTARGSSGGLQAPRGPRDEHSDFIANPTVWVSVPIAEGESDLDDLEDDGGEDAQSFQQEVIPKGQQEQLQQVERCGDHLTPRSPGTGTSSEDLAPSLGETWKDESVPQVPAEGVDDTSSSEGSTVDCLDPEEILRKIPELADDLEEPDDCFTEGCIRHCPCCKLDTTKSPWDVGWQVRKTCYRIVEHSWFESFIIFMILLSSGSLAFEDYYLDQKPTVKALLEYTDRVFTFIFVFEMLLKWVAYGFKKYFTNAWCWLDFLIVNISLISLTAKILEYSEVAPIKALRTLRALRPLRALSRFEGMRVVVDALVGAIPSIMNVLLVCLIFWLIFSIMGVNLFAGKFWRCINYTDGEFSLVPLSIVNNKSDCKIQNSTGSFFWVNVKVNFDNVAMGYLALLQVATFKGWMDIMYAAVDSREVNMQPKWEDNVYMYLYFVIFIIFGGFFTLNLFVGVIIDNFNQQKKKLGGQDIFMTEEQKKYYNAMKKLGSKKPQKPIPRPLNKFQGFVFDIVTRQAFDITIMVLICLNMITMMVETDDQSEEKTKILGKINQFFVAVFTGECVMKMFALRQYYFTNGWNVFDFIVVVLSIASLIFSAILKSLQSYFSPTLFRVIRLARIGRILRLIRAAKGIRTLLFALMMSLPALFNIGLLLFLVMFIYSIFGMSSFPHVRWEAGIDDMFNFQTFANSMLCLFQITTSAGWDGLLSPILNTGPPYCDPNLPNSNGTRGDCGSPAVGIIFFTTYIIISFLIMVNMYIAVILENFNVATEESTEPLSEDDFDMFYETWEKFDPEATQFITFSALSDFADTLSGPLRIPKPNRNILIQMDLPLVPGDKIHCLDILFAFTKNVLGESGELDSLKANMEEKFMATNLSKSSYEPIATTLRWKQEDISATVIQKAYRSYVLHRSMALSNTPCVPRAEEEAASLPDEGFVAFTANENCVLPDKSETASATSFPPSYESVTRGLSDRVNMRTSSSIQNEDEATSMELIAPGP

SMILES: CS(=O)(=O)c1cccc(NC(=O)c2cc(C(F)(F)F)nnc2Oc2cccc(OC(F)(F)F)c2)c1 [Compound 52]
- IC50 [1]: > 5000 nM
- IC50 [2]: > 5000 nM

SMILES: CSc1cccc(NC(=O)c2cc(C(F)(F)F)nnc2Oc2ccc(C#N)cc2C)c1 [Compound 110]
- IC50 [1]: > 5000 nM
- IC50 [2]: > 5000 nM

SMILES: COc1cc(F)ccc1Oc1nnc(C(F)(F)F)cc1C(=O)Nc1cccc(N2CCOC2=O)c1 [Compound 57]
- IC50 [1]: > 5000 nM
- IC50 [2]: > 5000 nM

SMILES: COc1cc(F)ccc1Oc1nnc(C(F)(F)F)cc1C(=O)Nc1cncc(C(N)=O)n1 [Compound 128, N-(6-Carbamoylpyrazin-2-yl)-3-(4-fluoro-2-methoxyphenoxy)-6-(trifluoromethyl)pyridazine-4-carboxamide]
- IC50 [1]: > 5000 nM
- IC50 [2]: > 5000 nM

SMILES: Cc1cc(F)ccc1Oc1nnc(C(F)(F)F)cc1C(=O)Nc1cccc(-n2cnnc2)c1 [Compound 12]
- IC50 [1]: 1000 to 5000 nM
- IC50 [2]: 1000 to 5000 nM

SMILES: Cc1cc(F)ccc1Oc1nnc(C(F)(F)F)cc1C(=O)Nc1cccc(-c2cc[nH]n2)c1 [Compound 85]
- IC50 [1]: > 5000 nM
- IC50 [2]: > 5000 nM

SMILES: Cc1cc(F)ccc1Oc1nnc(C(F)(F)F)cc1C(=O)Nc1ccc(S(N)(=O)=O)cc1 [Compound 48]
- IC50 [1]: 1000 to 5000 nM
- IC50 [2]: 501 to 1000 nM

SMILES: COc1cc(F)ccc1Oc1nnc(C(F)(F)F)cc1C(=O)Nc1ccc(C)c(S(C)(=O)=O)c1 [Compound 107, 3-(4-Fluoro-2-methoxyphenoxy)-N-(4-methyl-3-(methylsulfonyl)phenyl)-6-(trifluoromethyl)pyridazine-4-carboxamide]
- IC50 [1]: ≤ 200 nM
- IC50 [2]: ≤ 200 nM

SMILES: COc1cc(F)ccc1Oc1nnc(C(F)(F)F)cc1C(=O)Nc1ccn2cnnc2c1 [Compound 21]
- IC50 [1]: 501 to 1000 nM
- IC50 [2]: 501 to 1000 nM

SMILES: COc1cc(F)ccc1Oc1nnc(C(F)(F)F)cc1C(=O)Nc1ccnc(S(N)(=O)=O)c1 [Compound 50]
- IC50 [1]: ≤ 200 nM
- IC50 [2]: ≤ 200 nM

SMILES: COc1cc(NC(=O)c2cc(C(F)(F)F)nnc2Oc2ccc(F)cc2C)c(C)cn1 [Compound 29]
- IC50 [1]: > 5000 nM
- IC50 [2]: > 5000 nM

SMILES: Cc1ccc(F)cc1Oc1nnc(C(F)(F)F)cc1C(=O)Nc1cccc(S(C)(=O)=O)c1 [Compound 70]
- IC50 [1]: 501 to 1000 nM
- IC50 [2]: 501 to 1000 nM

SMILES: CS(=O)(=O)c1cccc(NC(=O)c2cc(C(F)(F)F)nnc2Oc2cc(F)ccc2Cl)c1 [Compound 73]
- IC50 [1]: 201 to 500 nM
- IC50 [2]: 201 to 500 nM

SMILES: Cc1cc(F)ccc1Oc1nnc(C(F)(F)F)cc1C(=O)Nc1cccc(-n2cncn2)c1 [Compound 9]
- IC50 [1]: 1000 to 5000 nM
- IC50 [2]: > 5000 nM

SMILES: Cc1cc(F)ccc1Oc1nnc(C(F)(F)F)cc1C(=O)Nc1ccnnc1 [Compound 59, 3-(4-Fluoro-2-methyl-phenoxy)-N-pyridazin-4-yl-6-(trifluoromethyl)pyridazine-4-carboxamide]
- IC50 [1]: 201 to 500 nM
- IC50 [2]: 501 to 1000 nM

SMILES: Cc1cc(OC(F)(F)F)ccc1Oc1nnc(C(F)(F)F)cc1C(=O)Nc1cccc(S(N)(=O)=O)c1 [Compound 47]
- IC50 [1]: ≤ 200 nM
- IC50 [2]: ≤ 200 nM

SMILES: O=C(Nc1ccc[n+]([O-])c1)c1cc(C(F)(F)F)nnc1Oc1ccc(F)cc1Cl [Compound 62]
- IC50 [1]: > 5000 nM
- IC50 [2]: > 5000 nM

SMILES: COc1cc(F)ccc1Oc1nnc(C(F)(F)F)cc1C(=O)Nc1cccc(S(=O)(=O)C(C)C)c1 [Compound 17]
- IC50 [1]: 201 to 500 nM
- IC50 [2]: 501 to 1000 nM

SMILES: COc1cc(F)ccc1Oc1nnc(C(F)(F)F)cc1C(=O)Nc1ccc(C(N)=O)nc1 [Compound 125, N-(6-Carbamoylpyridin-3-yl)-3-(4-fluoro-2-methoxyphenoxy)-6-(trifluoromethyl)pyridazine-4-carboxamide]
- IC50 [1]: 201 to 500 nM
- IC50 [2]: ≤ 200 nM

SMILES: COc1cc(F)ccc1Oc1nnc(C(F)(F)F)cc1C(=O)Nc1cccc(S(C)(=N)=O)c1 (stereo not drawn) [Compound 99, 3-(4-Fluoro-2-methoxyphenoxy)-N-(3-(S-methylsulfonimidoyl)phenyl)-6-(trifluoromethyl)pyridazine-4-carboxamide]
- IC50 [1]: ≤ 200 nM
- IC50 [2]: ≤ 200 nM

SMILES: COc1cc(F)ccc1Oc1nnc(C(F)(F)F)cc1C(=O)Nc1cccc(-n2cnnc2C)c1 [Compound 54]
- IC50 [1]: 1000 to 5000 nM
- IC50 [2]: 1000 to 5000 nM

SMILES: CCOc1cc(F)ccc1Oc1nnc(C)cc1C(=O)Nc1cccc(S(C)(=N)=O)c1 (stereo not drawn) [Compound 95, 3-(2-Ethoxy-4-fluorophenoxy)-6-methyl-N-(3-(S-methylsulfonimidoyl)phenyl)pyridazine-4-carboxamide]
- IC50 [1]: > 5000 nM
- IC50 [2]: > 5000 nM

SMILES: Cc1cc(F)ccc1Oc1nnc(C(F)(F)F)cc1C(=O)Nc1ccc(C)c(S(C)(=N)=O)c1 (stereo not drawn) [Compound 109, 3-(4-Fluoro-2-methylphenoxy)-N-(4-methyl-3-(S-methylsulfonimidoyl)phenyl)-6-(trifluoromethyl)pyridazine-4-carboxamide]
- IC50 [1]: 201 to 500 nM
- IC50 [2]: 201 to 500 nM

SMILES: Cc1cc(C#N)ccc1Oc1nnc(C(F)(F)F)cc1C(=O)Nc1cccc(S(C)(=O)=O)c1 [Compound 78]
- IC50 [1]: > 5000 nM
- IC50 [2]: > 5000 nM

SMILES: COc1cc(C#N)ccc1Oc1nnc(C(F)(F)F)cc1C(=O)Nc1cccc(S(N)(=O)=O)c1 [Compound 121, 3-(4-Cyano-2-methoxyphenoxy)-N-(3-sulfamoylphenyl)-6-(trifluoromethyl)pyridazine-4-carboxamide]
- IC50 [1]: ≤ 200 nM
- IC50 [2]: ≤ 200 nM

SMILES: Cc1cc(C(=O)Nc2cccc(S(C)(=N)=O)c2)c(Oc2ccc(F)cc2C)nn1 (stereo not drawn) [Compound 93, 3-(4-Fluoro-2-methyl-phenoxy)-6-methyl-N-[3-(methylsulfonimidoyl)phenyl]pyridazine-4-carboxamide]
- IC50 [1]: > 5000 nM
- IC50 [2]: 1000 to 5000 nM

SMILES: COc1ccc(Oc2nnc(C(F)(F)F)cc2C(=O)Nc2cccc(S(C)(=O)=O)c2)c(C)c1 [Compound 53]
- IC50 [1]: ≤ 200 nM
- IC50 [2]: ≤ 200 nM

SMILES: CS(=N)(=O)c1cccc(NC(=O)c2cc(C(F)(F)F)nnc2Oc2ccc(F)cc2Cl)c1 (stereo not drawn) [Compound 96, 3-(2-Chloro-4-fluorophenoxy)-N-(3-(S-methylsulfonimidoyl)phenyl)-6-(trifluoromethyl)pyridazine-4-carboxamide]
- IC50 [1]: 501 to 1000 nM
- IC50 [2]: 201 to 500 nM

SMILES: Cc1cc(F)ccc1Oc1nnc(C(F)(F)F)cc1C(=O)Nc1cccc2nncn12 [Compound 134, 3-(4-Fluoro-2-methyl-phenoxy)-N-([1,2,4]triazolo[4,3-a]pyridin-5-yl)-6-(trifluoromethyl)pyridazine-4-carboxamide]
- IC50 [1]: > 5000 nM
- IC50 [2]: > 5000 nM

SMILES: COc1cc(F)ccc1Oc1nnc(C(F)(F)F)cc1C(=O)Nc1cncc(S(C)(=O)=O)c1 [Compound 16]
- IC50 [1]: 1000 to 5000 nM
- IC50 [2]: 1000 to 5000 nM

SMILES: O=C(Nc1ccnnc1)c1cc(C(F)(F)F)nnc1Oc1ccc(F)cc1Cl [Compound 63]
- IC50 [1]: 501 to 1000 nM
- IC50 [2]: 201 to 500 nM

SMILES: Cc1ccc(F)cc1Oc1nnc(C(F)(F)F)cc1C(=O)Nc1cccc(S(N)(=O)=O)c1 [Compound 119, 3-(5-Fluoro-2-methylphenoxy)-N-(3-sulfamoylphenyl)-6-(trifluoromethyl)pyridazine-4-carboxamide]
- IC50 [1]: 501 to 1000 nM
- IC50 [2]: 501 to 1000 nM

SMILES: CS(=N)(=O)c1cc(NC(=O)c2cc(C(F)(F)F)nnc2Oc2ccc(F)cc2Cl)ccn1 (stereo not drawn) [Compound 97]
- IC50 [1]: 1000 to 5000 nM
- IC50 [2]: 1000 to 5000 nM

SMILES: Cc1cc(F)ccc1Oc1nnc(C(F)(F)F)cc1C(=O)Nc1cccc(S(N)(=O)=O)c1 [Compound 51]
- IC50 [1]: ≤ 200 nM
- IC50 [2]: ≤ 200 nM

SMILES: COc1ccc(F)cc1Oc1nnc(C(F)(F)F)cc1C(=O)Nc1cccc(C(N)=O)c1 [Compound 80]
- IC50 [1]: 501 to 1000 nM
- IC50 [2]: 501 to 1000 nM

SMILES: COc1cc(F)ccc1Oc1nnc(C(F)(F)F)cc1C(=O)Nc1cccc(S(=O)(=O)C2CC2)c1 [Compound 25]
- IC50 [1]: ≤ 200 nM
- IC50 [2]: ≤ 200 nM

SMILES: CCOc1cc(F)ccc1Oc1nnc(C)cc1C(=O)Nc1cccc(S(C)(=O)=O)c1 [Compound 108]
- IC50 [1]: > 5000 nM
- IC50 [2]: > 5000 nM

SMILES: NS(=O)(=O)c1cccc(NC(=O)c2cc(C(F)(F)F)nnc2Oc2cc(F)ccc2Cl)c1 [Compound 118, 3-(2-Chloro-5-fluorophenoxy)-N-(3-sulfamoylphenyl)-6-(trifluoromethyl)pyridazine-4-carboxamide]
- IC50 [1]: ≤ 200 nM
- IC50 [2]: ≤ 200 nM

SMILES: COc1cc(F)ccc1Oc1nnc(C(F)(F)F)cc1C(=O)Nc1cccc(CS(C)(=O)=O)c1 [Compound 19]
- IC50 [1]: 1000 to 5000 nM
- IC50 [2]: 1000 to 5000 nM
